Paper PMC5799266, “ComX-Induced Exoproteases Degrade ComX in Bacillus subtilis PS-216” (Frontiers in Microbiology, 2018)
Where no end group is shown, it is not given here.

What was measured:
[1] = test system: exoproteases in B. subtilis PS-216 floating biofilm spent media; test: Proteolytic activity of harvested floating biofilm spent media with EDTA or subtilisin added after harvest (casein-gelatin plates); type: biochemical, Bacillus subtilis; conditions: EDTA 1 mM added to wt floating biofilm spent medium, 16 h at 37°C
Method: To prepare casein gelatin agar plates 1% (w/v) casein sodium salt from bovine milk (Sigma–Aldrich, United States) and 1% (w/v) gelatin from porcine skin (Sigma–Aldrich, United States) were thoroughly dissolved in 0.02 M NaOH and the pH was equilibrated to 7 ± 0.2 as described by [Montville (1983)]. […] Finally, 1.5% (w/v) of agar was added to the casein gelatin medium. The casein gelatin medium was autoclaved at 110°C. 40 ml of the medium was poured into Petri dishes with 9 cm diameter. Wells (6 mm diameter) were cut into the casein gelatin agar using an agar punch cutter.
Proteolytic activity was determined in B. subtilis spent medium at different time points. The spent medium below the biofilm was centrifuged for 5 min at 8000 g to remove remaining planktonic cells and sterilized through filters with 0.2 μm pores. Spent medium was diluted in 10 mM sodium acetate buffer with 5 mM calcium acetate (pH 7.5). If EDTA was added to experimental samples, spent medium was diluted in PBS buffer (10 mM sodium phosphate dibasic, 1 mM potassium phosphate monobasic, 137 mM NaCl, and 2.7 mM KCl pH 7). The diluted spent medium (100 μl) was dispensed into the wells punched into the casein gelatin agar. The plates were incubated for 16 h at 37°C when the proteolytic zones were measured. […]

subtilisin = test: ComX biological activity decay in E. coli ED367 M9 spent medium with subtilisin (biosensor BM1456); type: in vitro ADME; conditions: E. coli ED367 M9 spent medium with heterologous ComX, subtilisin 0.1 mg/ml, 24 h at 37°C, vs subtilisin untreated control, three biological replicates
Method: (§1) The ComX biological activity was quantified in spent media of various B. subtilis strains harvested after 36 and 48 h of static growth, using biosensor strains: B. subtilis BM1456 and BM1400. […] The BM1400 strain only served to determine background fluorescence, since it carries no fluorescent marker. […] The BM1456 biosenor responds to ComX in the spent medium by inducing the PsrfAA-yfp reporter ([Oslizlo et al., 2014]). Since the induction of PsrfAA is proportional to the quantity of ComX ([Ansaldi et al., 2002]) we used this assay to estimate the quantity of biologically active ComX in the spent media of various pellicles.
Both biosensor strains were grown in 5 ml of CM medium supplemented with 1% (v/v) of filtered spent media of selected strains for 6 h at 37°C with shaking (200 rpm). After 6 h of incubation 200 μl aliquots were dispensed in a sterile 96-well black transparent bottom microtiter plate. The PsrfAA-yfp expression was quantified by YFP (yellow fluorescent protein) fluorescence intensity. YFP was excited at 510 nm and emissions were measured at 530 nm. The gain was set to 100. Each PsrfAA-yfp reading was normalized to OD650. The normalized autofluorescence background of BM1400 grown in the same experimental conditions was subtracted. […]
ComX biological activity was determined in the spent media immediately after harvest (T0) and after a 24 h (T24) incubation at 37°C. […]

[2] = test system: exoproteases in B. subtilis PS-216 floating biofilm spent media; test: ComX biological activity decay in floating biofilm spent media (biosensor BM1456, PsrfAA-yfp); type: in vitro ADME, Bacillus subtilis; conditions: for ComX biological activity decay: T0 vs 24 h at 37°C, three biological replicates
Method: as §1
Both biosensor strains were grown in 5 ml of CM medium supplemented with 1% (v/v) of filtered spent media of selected strains for 6 h at 37°C with shaking (200 rpm). After 6 h of incubation 200 μl aliquots were dispensed in a sterile 96-well black transparent bottom microtiter plate. The PsrfAA-yfp expression was quantified by YFP (yellow fluorescent protein) fluorescence intensity. YFP was excited at 510 nm and emissions were measured at 530 nm. The gain was set to 100. Each PsrfAA-yfp reading was normalized to OD650. The normalized autofluorescence background of BM1400 grown in the same experimental conditions was subtracted. Additionally, we subtracted the PsrfAA-yfp expression of cells exposed to ΔcomQ spent medium (lacks ComX), to account for ComX independent YFP expression.
ComX biological activity was determined in the spent media immediately after harvest (T0) and after a 24 h (T24) incubation at 37°C. We reasoned that if exoproteases in the spent medium degrade ComX the ComX biological activity at T0 will be greater than at T24. To calculate the ComX biological activity decay we used the following equation:
ComXbiologicalactivitydecay[%]= ComXbiologicalactivity(To)−ComXbiologicalactivity(T24)/ComXbiologicalactivity(To)*100
The same approach was used to determine ComX biological activity decay in the spent media supplemented with subtilisin (0.1 mg/ml) or metalloprotease inhibitor EDTA (1 mM) after harvesting or to estimate the effect of commercially available subtilisin on ComX heterologously produced in E. coli ED367.

[3] = test system: B. subtilis PS-216 ΔcomQ floating biofilm; test: Floating biofilm morphology after addition of ComX; type: cell-based, Bacillus subtilis; conditions: ΔcomQ mutant at 24 h, MSgg + 20% (v/v) ED367 M9 spent medium with ComX
Method: (§2) To harvest pellicle spent media 1% (v/v) of B. subtilis spores were inoculated in 4 ml of MSgg medium ([Branda et al., 2001]), in some cases complemented with 20% (v/v) spent M9 minimal medium and incubated in sterile 12-well microtiter plates in static conditions at 37°C.

[4] = test system: exoprotease production of B. subtilis PS-216 ΔcomQ floating biofilms; test: Proteolytic activity in spent media of floating biofilms grown with ComX (casein-gelatin plates); type: cell-based, Bacillus subtilis; conditions: ΔcomQ mutant, 24 h floating biofilm in MSgg + 20% (v/v) ED367 M9 spent medium with ComX, 12-well plates, 37°C; casein-gelatin plate zones; three biological replicates
Method: as §2
To prepare casein gelatin agar plates 1% (w/v) casein sodium salt from bovine milk (Sigma–Aldrich, United States) and 1% (w/v) gelatin from porcine skin (Sigma–Aldrich, United States) were thoroughly dissolved in 0.02 M NaOH and the pH was equilibrated to 7 ± 0.2 as described by [Montville (1983)]. Wherever, the proteolytic inhibition by ethylenediaminetetraacetic acid (EDTA) was tested, EDTA was added to the casein gelatin medium in 1 mM final concentration. Finally, 1.5% (w/v) of agar was added to the casein gelatin medium. The casein gelatin medium was autoclaved at 110°C. 40 ml of the medium was poured into Petri dishes with 9 cm diameter. Wells (6 mm diameter) were cut into the casein gelatin agar using an agar punch cutter.
Proteolytic activity was determined in B. subtilis spent medium at different time points. The spent medium below the biofilm was centrifuged for 5 min at 8000 g to remove remaining planktonic cells and sterilized through filters with 0.2 μm pores. […] The plates were incubated for 16 h at 37°C when the proteolytic zones were measured. […]

[5] = test system: PaprE-gfp expression in B. subtilis PS-216 mutants; test: PaprE-gfp expression during formation of floating biofilm, complementation with ComX; type: cell-based, Bacillus subtilis
Method: To measure gene expression in floating biofilms (pellicles) a spore suspension 1% (v/v) was inoculated into the liquid MSgg medium. In some experiments the MSgg medium was supplemented with 20% (v/v) of the spent medium containing ComX, which was heterologously produced by E. coli ED367 ([Ansaldi et al., 2002]). The spent M9 medium of E. coli ED367 that was not induced by IPTG was used as a negative control.
Briefly, 200 μl aliquots of inoculated MSgg medium, sometimes supplemented with M9 spent medium were dispensed in a sterile 96-well black transparent bottom microtiter plate in four technical replicates. The lid was sealed with micropore tape and the space between wells was filled with sterile distilled water to minimize the effect of medium evaporation. The microtiter plate was incubated in the Cytation 3 imaging reader (BioTek, United States) at 37°C without shaking. Optical density at 650 nm and fluorescence intensity were measured in half hour intervals for up to 60 h. Fluorescence intensity of GFP (green fluorescent protein) was used to monitor PaprE-gfp expression with excitation at 480 nm and emission at 510 nm. The gain was set on 50. In a parallel experimental setup the same strains without the fluorescent marker were always cultured. To calculate the final expression the autofluorescence of unmarked strains was deducted from the fluorescence of the marked strains. Fluorescence intensity was normalized per OD650 of fluorescently labeled strains at each time point.

Compound	effect on proteolytic activity of spent medium [1]	decay of the ComX biological activity, change with subtilisin (subtilisin)	ComX biological activity decay, change with subtilisin ([2]; comP::cat or degQ::tet spent media + subtilisin 0.1 mg/ml added after harvest vs without, 24 h at 37°C, biosensor BM1456)	ComX biological activity decay ([2]; spent media of mutant strains (degQ::tet, comP::cat; low proteolytic activity) harvested at 36 and 48 h, biosensor BM1456)	ComX biological activity decay ([2]; spent media of wt PS-216 floating biofilms harvested at 36 and 48 h (MSgg), biosensor BM1456 PsrfAA-yfp fluorescence)	ComX biological activity decay, change with EDTA ([2]; wt spent medium + EDTA 1 mM added after harvest vs without, 24 h at 37°C, biosensor BM1456)	floating biofilm morphology [3]	complementation of spent media proteolytic activity [4]	complementation of PaprE-gfp expression ([5]; degQ::tet mutant of PS-216, MSgg + 20% (v/v) ED367 M9 spent medium with ComX)	complementation of PaprE-gfp expression ([5]; ΔcomQ degQ::tet double mutant of PS-216, MSgg + 20% (v/v) ED367 M9 spent medium with ComX)	complementation of PaprE-gfp expression ([5]; ΔcomQ mutant of PS-216, floating biofilm in MSgg + 20% (v/v) M9 spent medium of IPTG-induced E. coli ED367 (heterologous ComX), 37°C, control non-induced spent medium, GFP fluorescence per OD650, three biological replicates)
O=C(O)CN(CCN(CC(=O)O)CC(=O)O)CC(=O)O [EDTA, ethylenediaminetetraacetic acid]	decreases										
ComX: auto-inducing signaling peptide of B. subtilis ComQXPA system, modified by isoprenyl transferase ComQ; native in spent media or heterologously produced by E. coli ED367 (ADPITRQWGD; also: isoprenylated by ComQ, site not given here; UniProt P45453 46-55, looked up)		increases	increased	low	high	decreases	restores the ΔcomQ mutant floating biofilm morphology to the wt morphology	complemented	does not complement	does not complement	complementation was partial
